Test results from patent publication US20110105515A1, “TARGETING THE ONCOPROTEIN NUCLEOPHOSMIN” (President and Fellows of Harvard College, priority 2007, published 2011).

Columns and labels:
CCRF-CEM = test: cells; details: Homo sapiens, 48 h
SR = test: cells; details: Homo sapiens, 48 h
A549/ATCC = test: cells; details: Homo sapiens, A549, 48 h; for CC50: read-out: LC50
HOP-62 = test: cells; details: Homo sapiens, HOP-62, 48 h; for CC50: read-out: LC50
COLO 205 = test: cells; details: Homo sapiens, COLO 205, 48 h; for CC50: read-out: LC50
HCT-116 = test: cells; details: Homo sapiens, HCT-116, 48 h; for CC50: read-out: LC50
SW-620 = test: cells; details: Homo sapiens, SW-620, 48 h; for CC50: read-out: LC50
SNB-19 = test: cells; details: Homo sapiens, SNB-19, 48 h; for CC50: read-out: LC50
U251 = test: cells; details: Homo sapiens, U-251, 48 h; for CC50: read-out: LC50
SK-MEL-2 = test: cells; details: Homo sapiens, SK-MEL-2, 48 h
SK-MEL-5 = test: cells; details: Homo sapiens, SK-MEL-5, 48 h; for CC50: read-out: LC50
IGROV1 = test: cells; details: Homo sapiens, IGROV-1, 48 h
SK-OV-3 = test: cells; details: Homo sapiens, SK-OV-3, 48 h; for CC50: read-out: LC50
RXF 393 = test: cells; details: Homo sapiens, RXF 393, 48 h
UO-31 = test: cells; details: Homo sapiens, UO-31, 48 h; for CC50: read-out: LC50
PC-3 = test: cells; details: Homo sapiens, PC-3, 48 h
MCF7 = test: cells; details: Homo sapiens, MCF7, 48 h; for CC50: read-out: LC50
T-47D = test: cells; details: Homo sapiens, T47D, 48 h
CAKI-1 = test: NCI 60 cell lines, SRB assay: CAKI-1; type: cell-based, human; details: CAKI-1 (Renal Cancer), 48 hours
Method: The human tumor cell lines were grown in RPMI 1640 medium containing 5% fetal bovine serum (FBS) and 2 mM L-glutamine. The cells were inoculated into 96 well microtiter plates in 100 μL volumes at plating densities ranging from 5000 to 40000 cells/well depending on the doubling time of each individual cell line. After cell inoculation, the microtiter plates were incubated at 37° C., 5% CO2, 95% air, and 100% relative humidity for 24 hours prior to addition of the test compound. The following day, two plates of each cell line were fixed in situ with TCA to represent a measurement of cell population for each cell line at the time of sample addition (Tz). Each of the test compounds was dissolved in dimethyl sulfoxide at 400-times the desired final maximum test concentration, and the resulting solutions were stored frozen prior to use. At the time of sample addition, an aliquot of frozen concentrate was thawed and diluted to twice the desired final maximum test concentration with complete medium containing 50 μg/mL gentamicin. Additional four 10-fold serial dilutions were prepared to provide a total of five sample concentrations plus control. Aliquots of 100 μL of these different concentrations were added to the appropriate microtiter wells already containing 100 μL of medium, making up the required final sample concentrations. […] Bound stain was subsequently solubilized with 10 mM trizma base, and the absorbance was read on an automated plate reader at a wavelength of 515 nm. […] Using the seven absorbance measurements [time zero (Tz), control growth (C), and test growth in the presence of drug at the five concentration levels (Ti)], the percentage growth was calculated at each of the sample concentration levels. […] The test compound concentration resulting in total growth inhibition was calculated from Ti=Tz. […] In the event when the effect was not reached or was exceeded, the value for the respective parameter was expressed as greater or less than the maximum or minimum concentration tested.

Compound | GI50 (CCRF-CEM) | GI50 (SR) | GI50 (A549/ATCC) | CC50 (A549/ATCC) | GI50 (HOP-62) | CC50 (HOP-62) | GI50 (COLO 205) | CC50 (COLO 205) | GI50 (HCT-116) | CC50 (HCT-116) | GI50 (SW-620) | CC50 (SW-620) | GI50 (SNB-19) | CC50 (SNB-19) | GI50 (U251) | CC50 (U251) | GI50 (SK-MEL-5) | CC50 (SK-MEL-5) | GI50 (SK-OV-3) | CC50 (SK-OV-3) | further results
[2H]On1c2c(c3ccc4c(c31)C=CC(C)(C)O4)C(OC([2H])([2H])[2H])[C@@]13NC(=O)C4(CCCN4C1=O)CC3C2(C)C (stereo partly drawn) [Deuterated Methanol Adduct] | 185 nM | 235 nM | 1560 nM | 5730 nM | 2390 nM | 26700 nM | 336 nM | 4450 nM | 744 nM | 4440 nM | 375 nM | 4900 nM | 1110 nM | 4810 nM | 382 nM | 3700 nM | 1410 nM | 5230 nM | 1010 nM | 4650 nM | CC50 (CCRF-CEM; read-out: LC50): 4600 nM; CC50 (SR; read-out: LC50): 9370 nM; GI50 (SK-MEL-2): 901 nM; CC50 (SK-MEL-2; read-out: LC50): 5390 nM; GI50 (IGROV1): 743 nM; CC50 (IGROV1; read-out: LC50): 4680 nM; GI50 (RXF 393): 283 nM; CC50 (RXF 393; read-out: LC50): 2050 nM; GI50 (UO-31): 498 nM; CC50 (UO-31): 4290 nM; GI50 (PC-3): 619 nM; CC50 (PC-3; read-out: LC50): 5120 nM; GI50 (MCF7): 348 nM; CC50 (MCF7): 4560 nM; GI50 (T-47D): 142 nM
Cc1cc(C)cc(-c2ccc3c(c2)[N+]([O-])=C2C3=C[C@@]34NC(=O)C5(CCCN5C3=O)CC4C2(C)C)c1 (stereo partly drawn) [Biphenyl Analogue] | 105 nM | 118 nM | 279 nM | 3000 nM | 1640 nM | 6740 nM | 128 nM | 526 nM | 186 nM | 764 nM | 151 nM | 806 nM | 238 nM | 3090 nM | 136 nM | 547 nM | 166 nM | 629 nM | 300 nM | 3450 nM | GI50 (UO-31): 190 nM; CC50 (UO-31): 2760 nM; GI50 (MCF7): 212 nM; CC50 (MCF7): 5510 nM; GI50 (T-47D): 57.6 nM
CN(C)c1cccc2c(S(=O)(=O)NCCCCCCCCCCOc3ccc4c(c3)[N+]([O-])=C3C4=C[C@@]45NC(=O)C6(CCCN6C4=O)CC5C3(C)C)cccc12 (stereo partly drawn) [Dansyl Analogue] |  |  |  |  |  |  |  |  |  |  |  |  |  |  |  |  |  |  |  |  | GI50 (CAKI-1): 426 nM; TGI (CAKI-1): 2790 nM; CC50 (CAKI-1; read-out: LC50 (the source's name)): 20800 nM
